Test results as given in paper PMC6445164, “Primary mono- and bis-sulfonamides obtained via regiospecific sulfochlorination of N-arylpyrazoles: inhibition profile against a panel of human carbonic anhydrases” (Journal of Enzyme Inhibition and Medicinal Chemistry, 2017).
Read-outs that look alike come from different tables or passages of the source.

Assays:
hCA VII = hCA VII (Homo sapiens, UniProt P43166); assay: stopped-flow CA catalysed CO2 hydration assay, hCA VII
Method: (§1) An applied photophysics stopped-flow instrument has been used for assaying the CA catalysed CO2 hydration activity[21]. […] The CO2 concentrations ranged from 1.7 to 17 mM for the determination of the kinetic parameters and inhibition constants. […] The uncatalysed rates were determined in the same manner and subtracted from the total observed rates. Stock solutions of inhibitor (0.1 mM) were prepared in distilled-deionized water and dilutions up to 0.005 nM were done thereafter with the assay buffer. Inhibitor and enzyme solutions were preincubated together for 15 min at room temperature prior to assay, in order to allow for the formation of the E–I complex. The inhibition constants were obtained by non-linear least-squares methods using PRISM 3 and the Cheng–Prusoff equation, as reported earlier, and represent the mean from at least three different determinations. All CA isoforms were recombinant ones obtained in-house[22–25].

hCA IV = hCA IV (Homo sapiens, UniProt P22748); assay: stopped-flow CA catalysed CO2 hydration assay, hCA IV
Method: as §1

hCA II = hCA II (Homo sapiens, UniProt P00918); assay: stopped-flow CA catalysed CO2 hydration assay, hCA II
Method: as §1

hCA I = hCA I (Homo sapiens, UniProt P00915); assay: stopped-flow CA catalysed CO2 hydration assay, hCA I
Method: as §1

[1] = within the panel hCA I, II, IV, VII
[2] = read-out: hCA Ki (μM) hCA VII, recombinant enzyme, stopped-flow CO2 hydration, 15 min preincubation, pH 8.3
[3] = read-out: hCA Ki (μM) hCA IV, recombinant enzyme, stopped-flow CO2 hydration, 15 min preincubation, pH 8.3
[4] = read-out: hCA Ki (μM) hCA II, recombinant enzyme, stopped-flow CO2 hydration, 15 min preincubation, pH 8.3
[5] = read-out: hCA Ki (μM) hCA I, recombinant enzyme, stopped-flow CO2 hydration, 15 min preincubation, pH 8.3

Sequence of hCA VII (P43166 whole entry): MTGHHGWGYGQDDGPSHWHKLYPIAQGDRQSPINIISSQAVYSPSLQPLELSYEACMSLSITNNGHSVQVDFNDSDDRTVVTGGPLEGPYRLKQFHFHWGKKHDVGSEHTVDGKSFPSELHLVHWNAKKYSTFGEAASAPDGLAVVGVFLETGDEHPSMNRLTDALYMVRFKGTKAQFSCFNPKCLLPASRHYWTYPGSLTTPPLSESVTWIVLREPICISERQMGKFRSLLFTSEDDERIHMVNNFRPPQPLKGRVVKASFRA
Sequence of hCA I (P00915 whole entry): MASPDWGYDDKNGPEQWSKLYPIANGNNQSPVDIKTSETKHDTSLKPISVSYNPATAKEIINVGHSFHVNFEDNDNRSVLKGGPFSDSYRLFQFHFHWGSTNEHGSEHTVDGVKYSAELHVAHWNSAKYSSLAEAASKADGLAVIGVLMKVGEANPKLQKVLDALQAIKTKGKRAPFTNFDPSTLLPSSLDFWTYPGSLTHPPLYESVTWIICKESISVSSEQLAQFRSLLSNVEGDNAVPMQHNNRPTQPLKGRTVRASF
Sequence of hCA IV (P22748 19-312): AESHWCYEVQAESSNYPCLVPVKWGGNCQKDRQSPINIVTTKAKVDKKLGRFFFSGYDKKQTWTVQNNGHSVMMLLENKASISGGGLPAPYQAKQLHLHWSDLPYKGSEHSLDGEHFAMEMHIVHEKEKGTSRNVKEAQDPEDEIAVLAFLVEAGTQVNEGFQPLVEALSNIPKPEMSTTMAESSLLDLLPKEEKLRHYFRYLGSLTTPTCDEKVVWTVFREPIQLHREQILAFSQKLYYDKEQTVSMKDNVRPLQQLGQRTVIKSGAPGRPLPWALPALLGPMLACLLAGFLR

Structure (SMILES) | Ki (hCA VII) [µM] | Ki (hCA IV) [µM] | Ki (hCA II) [µM] | Ki (hCA I) [µM] | melting point [°C] | other results
NS(=O)(=O)c1ccc(-n2cccn2)cc1 [Compound 7a, 4-(^1H-pyrazol-1-yl)benzenesulfonamide] | 0.8 | > 10 | 0.072 | 4.78 | 323 to 325 | 
Cc1ccc(-n2cccn2)cc1S(N)(=O)=O [Compound 7b, 2-Methyl-5-(^1H-pyrazol-1-yl)benzenesulfonamide] | > 10 | 0.56 | > 10 | > 10 | 147 to 149 | hCA IV inhibition, in words (hCA IV): potent inhibition of hCA IV; isoform selectivity for hCA IV, in words (hCA IV; [1]): high selectivity
Cc1cc(C)n(-c2ccc(S(N)(=O)=O)c(C)c2)n1 [Compound 7c, 4-(3,5-Dimethyl-^1H-pyrazol-1-yl)-2-methylbenzenesulfonamide] | 0.04 | 0.033 | 0.004 | 0.26 | 194 to 196 | 
Cc1cc(-n2cccn2)ccc1S(N)(=O)=O [Compound 7d, 2-Methyl-4-(^1H-pyrazol-1-yl)benzenesulfonamide] | 0.014 | 3.42 | 0.008 | 0.096 | 161 to 163 | 
Cc1cc(C)n(-c2cc(S(N)(=O)=O)ccc2C)n1 [Compound 7e, 3-(3,5-Dimethyl-^1H-pyrazol-1-yl)-4-methylbenzenesulfonamide] | 0.194 | > 10 | 0.381 | 4.21 | 112 to 114 | 
Cc1ccc(S(N)(=O)=O)cc1-n1cccn1 [Compound 7f] |  |  |  |  |  | Ki (hCA VII; [2]): 0.059 µM; Ki (hCA IV; [3]): > 10 µM; Ki (hCA II; [4]): 0.059 µM; Ki (hCA I; [5]): 1.23 µM
COc1ccc(-n2nc(C)cc2C)cc1S(N)(=O)=O [Compound 7g, 5-(3,5-Dimethyl-^1H-pyrazol-1-yl)-2-methoxybenzenesulfonamide] | > 10 | > 10 | > 10 | > 10 | 195 to 197 | 
COc1ccc(-n2cccn2)cc1S(N)(=O)=O [Compound 7h] |  |  |  |  |  | Ki (hCA VII; [2]): > 10 µM; hCA IV inhibition, in words (hCA IV): loss of hCA IV inhibition activity; Ki (hCA IV; [3]): > 10 µM; Ki (hCA II; [4]): > 10 µM; Ki (hCA I; [5]): > 10 µM
COc1cc(-n2nc(C)cc2C)ccc1S(N)(=O)=O [Compound 7i, 4-(3,5-Dimethyl-^1H-pyrazol-1-yl)-2-methoxybenzenesulfonamide] | > 10 | > 10 | > 10 | 8.85 | 156 to 158 | 
COc1cc(-n2cccn2)ccc1S(N)(=O)=O [Compound 7j, 2-Methoxy-4-(^1H-pyrazol-1-yl)benzenesulfonamide] | 0.387 | > 10 | > 10 | > 10 | 221 to 223 | isoform selectivity for hCA VII, in words (hCA VII; [1]): quite notable
COc1ccc(S(N)(=O)=O)cc1-n1nc(C)cc1C [Compound 7k, 3-(3,5-Dimethyl-^1H-pyrazol-1-yl)-4-methoxybenzenesulfonamide] | > 10 | > 10 | > 10 | > 10 | 167 to 170 | hCA VII inhibition, in words (hCA VII): inactive throughout the panel; hCA IV inhibition, in words (hCA IV): inactive throughout the panel; hCA II inhibition, in words (hCA II): inactive throughout the panel; hCA I inhibition, in words (hCA I): inactive throughout the panel
COc1ccc(S(N)(=O)=O)cc1-n1cccn1 [Compound 7l, 4-Methoxy-3-(^1H-pyrazol-1-yl)benzenesulfonamide] | > 10 | > 10 | 6.65 | > 10 | 255 to 257 | 
NS(=O)(=O)c1ccc(-n2cccn2)cc1Cl [Compound 7m, 2-Chloro-4-(^1H-pyrazol-1-yl)benzenesulfonamide] | 0.328 | 0.086 | 0.085 | 0.066 | 181 to 183 | 
NS(=O)(=O)c1ccc(Cl)c(-n2cccn2)c1 [Compound 7n, 4-Chloro-3-(^1H-pyrazol-1-yl)benzenesulfonamide] | 0.009 | 0.004 | 0.001 | 3.83 | 204 to 206 | 
Cc1cc(C)n(-c2ccc(S(N)(=O)=O)cc2)n1 [Compound 7o, 4-(3,5-Dimethyl-^1H-pyrazol-1-yl)benzenesulfonamide] | 0.017 | 0.084 | 0.004 | 0.462 |  | 
Cc1nn(-c2ccc(Cl)cc2)c(C)c1S(N)(=O)=O [Compound 8a, 1-(4-Chlorophenyl)-3,5-dimethyl-^1H-pyrazole-4-sulfonamide] | > 10 | > 10 | 5.33 | 0.76 | 164 to 166 | 

Structure (SMILES) | Ki (hCA VII) [µM] | Ki (hCA IV) [µM] | Ki (hCA II) [µM] | Ki (hCA I) [µM] | melting point [°C] | other results
Cc1nn(-c2ccccc2)c(C)c1S(N)(=O)=O [Compound 8b, 3,5-Dimethyl-1-phenyl-^1H-pyrazole-4-sulfonamide] | 0.53 | > 10 | 0.28 | 0.54 | 161 to 163 | 
Cc1ccc(-n2nc(C)c(S(N)(=O)=O)c2C)cc1 [Compound 8c, 3,5-Dimethyl-1-(4-methylphenyl)-^1H-pyrazole-4-sulfonamide] | > 10 | > 10 | 0.74 | 0.76 | 171 to 174 | 
Cc1cccc(-n2nc(C)c(S(N)(=O)=O)c2C)c1 [Compound 8d, 3,5-Dimethyl-1-(3-methylphenyl)-^1H-pyrazole-4-sulfonamide] | 0.94 | > 10 | 0.24 | 0.27 | 174 to 176 | 
Cc1ccccc1-n1nc(C)c(S(N)(=O)=O)c1C [Compound 8e, 3,5-Dimethyl-1-(2-methylphenyl)-^1H-pyrazole-4-sulfonamide] | > 10 | > 10 | 0.091 | 0.6 | 161 to 163 | 
NS(=O)(=O)c1cnn(-c2ccc(Cl)cc2)c1 [Compound 8f, 1-(4-Chlorophenyl)-^1H-pyrazole-4-sulfonamide] | > 10 | 7.06 | 0.082 | 0.19 | 147 to 150 | 
Cc1nn(-c2cccc(Cl)c2)c(C)c1S(N)(=O)=O [Compound 8g, 1-(3-Chlorophenyl)-3,5-dimethyl-^1H-pyrazole-4-sulfonamide] | 0.46 | 9.49 | 1.08 | 0.94 | 182 to 184 | 
NS(=O)(=O)c1cnn(-c2cccc(Cl)c2)c1 [Compound 8h, (3-Chlorophenyl)-^1H-pyrazole-4-sulfonamide] |  |  |  |  |  | hCA VII inhibition, in words (hCA VII): good hCA I, II and VII inhibition activity; Ki (hCA VII; [2]): 0.24 µM; Ki (hCA IV; [3]): 3.74 µM; hCA II inhibition, in words (hCA II): good hCA I, II and VII inhibition activity; Ki (hCA II; [4]): 0.14 µM; hCA I inhibition, in words (hCA I): good hCA I, II and VII inhibition activity; Ki (hCA I; [5]): 0.54 µM
Cc1nn(-c2ccccc2Cl)c(C)c1S(N)(=O)=O [Compound 8i, 1-(2-Chlorophenyl)-3,5-dimethyl-^1H-pyrazole-4-sulfonamide] | > 10 | 7.19 | 2.64 | 0.62 | 204 to 206 | 
Cc1nn(-c2cccc(S(N)(=O)=O)c2)c(C)c1S(N)(=O)=O [Compound 9a, 3,5-Dimethyl-1-(3-sulfamoylphenyl)-^1H-pyrazole-4-sulfonamide] | 0.26 | 0.065 | 0.021 | 0.5 | 223 to 225 | 
Cc1nn(-c2ccc(S(N)(=O)=O)cc2)c(C)c1S(N)(=O)=O [Compound 9b, 3,5-Dimethyl-1-(4-sulfamoylphenyl)-^1H-pyrazole-4-sulfonamide] | 0.035 | 0.111 | 0.005 | 0.33 | 272 to 274 | 
NS(=O)(=O)c1ccc(-n2cc(S(N)(=O)=O)cn2)cc1 [Compound 9c, 1-(4-Sulfamoylphenyl)-^1H-pyrazole-4-sulfonamide] | 0.041 | 0.025 | 0.002 | 0.2 | 254 to 257 | 
Cc1ccc(-n2nc(C)c(S(N)(=O)=O)c2C)cc1S(N)(=O)=O [Compound 9d, 3,5-Dimethyl-1-(4-methyl-3-sulfamoylphenyl)-^1H-pyrazole-4-sulfonamide] | > 10 |  | > 10 | > 10 |  | 
Cc1ccc(-n2cc(S(N)(=O)=O)cn2)cc1S(N)(=O)=O [Compound 9e, 1-(4-Methyl-3-sulfamoylphenyl)-^1H-pyrazole-4-sulfonamide] | 0.068 | 0.24 | 0.004 | 0.3 | 217 to 220 | 
Cc1cc(-n2nc(C)c(S(N)(=O)=O)c2C)ccc1S(N)(=O)=O [Compound 9f, 3,5-Dimethyl-1-(3-methyl-4-sulfamoylphenyl)-^1H-pyrazole-4-sulfonamide] | 0.019 | 0.022 | 0.002 | 0.47 | 143 to 146 | 
Cc1cc(-n2cc(S(N)(=O)=O)cn2)ccc1S(N)(=O)=O [Compound 9g, 1-(3-Methyl-4-sulfamoylphenyl)-^1H-pyrazole-4-sulfonamide] |  |  |  |  | 205 to 207 | Ki (hCA VII; [2]): 0.005 µM; Ki (hCA IV; [3]): 5.8 µM; Ki (hCA II; [4]): 0.049 µM; Ki (hCA I; [5]): 0.1 µM
